{
  "source": "patent US10844077B2",
  "about": "“Thiazolyl-containing compounds for treating proliferative diseases” (Dana-Farber Cancer Institute, Inc., priority 2014, dated 2020)",
  "note": "Several values for one entry are separate records, joined by “and”; a condition that tells them apart may be missing. Equal entries are not always repeated.",
  "data": [
    {"biological_target": "LYN (Homo sapiens (Human), UniProt P07948)", "sequence (P07948 whole entry)": "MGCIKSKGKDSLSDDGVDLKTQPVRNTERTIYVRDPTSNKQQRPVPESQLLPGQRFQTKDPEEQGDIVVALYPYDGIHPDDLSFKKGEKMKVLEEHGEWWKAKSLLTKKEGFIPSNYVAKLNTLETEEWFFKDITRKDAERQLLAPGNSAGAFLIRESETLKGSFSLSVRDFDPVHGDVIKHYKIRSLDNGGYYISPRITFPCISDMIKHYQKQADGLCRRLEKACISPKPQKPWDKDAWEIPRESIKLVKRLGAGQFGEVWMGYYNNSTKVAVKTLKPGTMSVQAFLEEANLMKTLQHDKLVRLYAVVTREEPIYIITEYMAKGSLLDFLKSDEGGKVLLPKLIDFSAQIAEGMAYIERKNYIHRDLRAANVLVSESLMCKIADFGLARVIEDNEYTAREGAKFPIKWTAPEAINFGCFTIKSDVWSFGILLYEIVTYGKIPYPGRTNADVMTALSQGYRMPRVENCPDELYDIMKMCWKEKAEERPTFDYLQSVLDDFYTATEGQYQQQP", "assay": "KINATIV assay", "type": "cell-based", "conditions": "1 μM, 90 minutes, BCWM.1 cells", "procedure,_shortened": "(§1)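 Duplicate compound samples were compared with duplicate or quadruplicate controls. After harvesting and lysis, cells' lysates were probe-labeled (ATP-biotin), and kinase labeling was quantitated by ACTIVX.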", "values": [
      {"smiles": "C=CC(=O)N1CCC(CNc2nccc(Nc3ncc(C(=O)Nc4c(C)cccc4C)s3)n2)C1", "note": "(racemic) [Example I-8]", "% change of MS signal compared to control sample": ">97% and >90%"}
    ]},
    {"biological_target": "RSK3 domain1 (Homo sapiens (Human), UniProt Q15349)", "sequence (Q15349 whole entry, the tested form may be a part)": "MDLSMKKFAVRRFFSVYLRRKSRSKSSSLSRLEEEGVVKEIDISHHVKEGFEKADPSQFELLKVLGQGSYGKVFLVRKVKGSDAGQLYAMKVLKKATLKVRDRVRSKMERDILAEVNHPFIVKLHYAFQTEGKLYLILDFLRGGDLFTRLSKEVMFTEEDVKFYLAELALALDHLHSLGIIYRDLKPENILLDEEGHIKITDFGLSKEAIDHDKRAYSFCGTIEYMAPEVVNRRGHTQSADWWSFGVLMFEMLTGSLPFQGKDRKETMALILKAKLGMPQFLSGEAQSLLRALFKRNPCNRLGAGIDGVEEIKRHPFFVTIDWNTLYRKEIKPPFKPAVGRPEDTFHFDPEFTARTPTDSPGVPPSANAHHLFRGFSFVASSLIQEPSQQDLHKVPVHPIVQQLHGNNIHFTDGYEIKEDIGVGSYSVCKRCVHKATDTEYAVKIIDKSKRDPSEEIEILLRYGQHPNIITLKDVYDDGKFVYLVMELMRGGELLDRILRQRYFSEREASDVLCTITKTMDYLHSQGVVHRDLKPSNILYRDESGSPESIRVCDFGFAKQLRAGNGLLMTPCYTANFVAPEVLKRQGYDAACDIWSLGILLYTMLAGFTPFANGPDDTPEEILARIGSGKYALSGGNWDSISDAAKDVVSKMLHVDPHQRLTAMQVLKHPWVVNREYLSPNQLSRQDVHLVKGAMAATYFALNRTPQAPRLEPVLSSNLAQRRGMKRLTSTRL", "assay": "KINATIV assay", "type": "cell-based", "conditions": "1 μM, 90 minutes, BCWM.1 cells", "procedure,_shortened": "as §1", "units": {"% change of MS signal compared to control sample": "%"}, "values": [
      {"smiles": "C=CC(=O)N1CCC(CNc2nccc(Nc3ncc(C(=O)Nc4c(C)cccc4C)s3)n2)C1", "note": "(racemic) [Example I-8]", "% change of MS signal compared to control sample": "−62.5"}
    ]},
    {"biological_target": "NEK8 (Homo sapiens (Human), UniProt Q86SG6)", "assay": "KINATIV assay", "type": "cell-based", "conditions": "1 μM, 90 minutes, BCWM.1 cells", "procedure,_shortened": "as §1", "units": {"% change of MS signal compared to control sample": "%"}, "values": [
      {"smiles": "C=CC(=O)N1CCC(CNc2nccc(Nc3ncc(C(=O)Nc4c(C)cccc4C)s3)n2)C1", "note": "(racemic) [Example I-8]", "% change of MS signal compared to control sample": 13.1}
    ]},
    {"biological_target": "MELK (Homo sapiens (Human), UniProt Q14680)", "assay": "KINATIV assay", "type": "cell-based", "conditions": "1 μM, 90 minutes, BCWM.1 cells", "procedure,_shortened": "as §1", "units": {"% change of MS signal compared to control sample": "%"}, "values": [
      {"smiles": "C=CC(=O)N1CCC(CNc2nccc(Nc3ncc(C(=O)Nc4c(C)cccc4C)s3)n2)C1", "note": "(racemic) [Example I-8]", "% change of MS signal compared to control sample": "−10.0"}
    ]},
    {"biological_target": "LCK (Homo sapiens (Human), UniProt P06239)", "assay": "KINATIV assay", "type": "cell-based", "conditions": "1 μM, 90 minutes, BCWM.1 cells", "procedure,_shortened": "as §1", "units": {"% change of MS signal compared to control sample": "%"}, "values": [
      {"smiles": "C=CC(=O)N1CCC(CNc2nccc(Nc3ncc(C(=O)Nc4c(C)cccc4C)s3)n2)C1", "note": "(racemic) [Example I-8]", "% change of MS signal compared to control sample": 94.8}
    ]},
    {"biological_target": "LATS2 (Homo sapiens (Human), UniProt Q9NRM7)", "sequence (Q9NRM7 whole entry)": "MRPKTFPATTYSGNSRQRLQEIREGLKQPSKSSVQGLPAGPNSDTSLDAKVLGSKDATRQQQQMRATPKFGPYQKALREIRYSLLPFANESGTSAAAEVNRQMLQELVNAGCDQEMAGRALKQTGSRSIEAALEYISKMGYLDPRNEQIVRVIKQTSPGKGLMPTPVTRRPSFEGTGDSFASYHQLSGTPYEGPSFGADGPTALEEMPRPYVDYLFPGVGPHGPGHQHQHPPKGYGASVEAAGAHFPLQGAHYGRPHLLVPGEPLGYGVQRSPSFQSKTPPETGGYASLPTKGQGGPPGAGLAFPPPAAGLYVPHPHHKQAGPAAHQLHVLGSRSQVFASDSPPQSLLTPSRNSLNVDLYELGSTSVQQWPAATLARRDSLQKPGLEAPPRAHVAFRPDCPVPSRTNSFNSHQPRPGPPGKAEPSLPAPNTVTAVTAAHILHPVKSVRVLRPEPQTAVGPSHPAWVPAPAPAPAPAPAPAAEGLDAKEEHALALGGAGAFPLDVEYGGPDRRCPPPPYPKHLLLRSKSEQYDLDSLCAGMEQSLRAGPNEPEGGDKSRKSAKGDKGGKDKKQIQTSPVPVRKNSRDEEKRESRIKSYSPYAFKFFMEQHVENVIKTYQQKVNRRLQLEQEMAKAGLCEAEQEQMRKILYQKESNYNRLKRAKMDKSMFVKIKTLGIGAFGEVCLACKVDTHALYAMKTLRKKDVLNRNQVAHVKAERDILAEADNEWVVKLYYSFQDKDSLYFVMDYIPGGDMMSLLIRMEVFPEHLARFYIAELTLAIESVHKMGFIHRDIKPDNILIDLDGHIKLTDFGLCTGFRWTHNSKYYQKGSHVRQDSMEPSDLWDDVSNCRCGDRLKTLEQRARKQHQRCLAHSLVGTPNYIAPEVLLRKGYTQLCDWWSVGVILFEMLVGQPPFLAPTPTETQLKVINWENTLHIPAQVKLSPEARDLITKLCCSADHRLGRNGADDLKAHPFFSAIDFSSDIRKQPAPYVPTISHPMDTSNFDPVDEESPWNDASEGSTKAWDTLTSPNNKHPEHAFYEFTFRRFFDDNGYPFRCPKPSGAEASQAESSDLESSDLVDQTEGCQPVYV", "assay": "KINATIV assay", "type": "cell-based", "conditions": "1 μM, 90 minutes, BCWM.1 cells", "procedure,_shortened": "as §1", "units": {"% change of MS signal compared to control sample": "%"}, "values": [
      {"smiles": "C=CC(=O)N1CCC(CNc2nccc(Nc3ncc(C(=O)Nc4c(C)cccc4C)s3)n2)C1", "note": "(racemic) [Example I-8]", "% change of MS signal compared to control sample": 10.6}
    ]},
    {"tested_on": "ABL, ARG", "assay": "KINATIV assay", "type": "cell-based", "conditions": "1 μM, 90 minutes, BCWM.1 cells", "procedure,_shortened": "as §1", "values": [
      {"smiles": "C=CC(=O)N1CCC(CNc2nccc(Nc3ncc(C(=O)Nc4c(C)cccc4C)s3)n2)C1", "note": "(racemic) [Example I-8]", "% change of MS signal compared to control sample": ">90% and >97%"}
    ]},
    {"biological_target": "STLK6 (Homo sapiens (Human), UniProt Q9C0K7)", "assay": "KINATIV assay", "type": "cell-based", "conditions": "1 μM, 90 minutes, BCWM.1 cells", "procedure,_shortened": "as §1", "units": {"% change of MS signal compared to control sample": "%"}, "values": [
      {"smiles": "C=CC(=O)N1CCC(CNc2nccc(Nc3ncc(C(=O)Nc4c(C)cccc4C)s3)n2)C1", "note": "(racemic) [Example I-8]", "% change of MS signal compared to control sample": "−12.9"}
    ]},
    {"biological_target": "RSK1 domain2 (Homo sapiens (Human), UniProt Q15418)", "assay": "KINATIV assay", "type": "cell-based", "conditions": "1 μM, 90 minutes, BCWM.1 cells", "procedure,_shortened": "as §1", "units": {"% change of MS signal compared to control sample": "%"}, "values": [
      {"smiles": "C=CC(=O)N1CCC(CNc2nccc(Nc3ncc(C(=O)Nc4c(C)cccc4C)s3)n2)C1", "note": "(racemic) [Example I-8]", "% change of MS signal compared to control sample": 0.5}
    ]},
    {"tested_on": "ZC1/HGK, ZC2/TNIK, ZC3/MINK", "assay": "KINATIV assay", "type": "cell-based", "conditions": "1 μM, 90 minutes, BCWM.1 cells", "procedure,_shortened": "as §1", "units": {"% change of MS signal compared to control sample": "%"}, "values": [
      {"smiles": "C=CC(=O)N1CCC(CNc2nccc(Nc3ncc(C(=O)Nc4c(C)cccc4C)s3)n2)C1", "note": "(racemic) [Example I-8]", "% change of MS signal compared to control sample": 13.6}
    ]},
    {"biological_target": "MASTL (Homo sapiens (Human), UniProt Q96GX5)", "sequence (Q96GX5 whole entry)": "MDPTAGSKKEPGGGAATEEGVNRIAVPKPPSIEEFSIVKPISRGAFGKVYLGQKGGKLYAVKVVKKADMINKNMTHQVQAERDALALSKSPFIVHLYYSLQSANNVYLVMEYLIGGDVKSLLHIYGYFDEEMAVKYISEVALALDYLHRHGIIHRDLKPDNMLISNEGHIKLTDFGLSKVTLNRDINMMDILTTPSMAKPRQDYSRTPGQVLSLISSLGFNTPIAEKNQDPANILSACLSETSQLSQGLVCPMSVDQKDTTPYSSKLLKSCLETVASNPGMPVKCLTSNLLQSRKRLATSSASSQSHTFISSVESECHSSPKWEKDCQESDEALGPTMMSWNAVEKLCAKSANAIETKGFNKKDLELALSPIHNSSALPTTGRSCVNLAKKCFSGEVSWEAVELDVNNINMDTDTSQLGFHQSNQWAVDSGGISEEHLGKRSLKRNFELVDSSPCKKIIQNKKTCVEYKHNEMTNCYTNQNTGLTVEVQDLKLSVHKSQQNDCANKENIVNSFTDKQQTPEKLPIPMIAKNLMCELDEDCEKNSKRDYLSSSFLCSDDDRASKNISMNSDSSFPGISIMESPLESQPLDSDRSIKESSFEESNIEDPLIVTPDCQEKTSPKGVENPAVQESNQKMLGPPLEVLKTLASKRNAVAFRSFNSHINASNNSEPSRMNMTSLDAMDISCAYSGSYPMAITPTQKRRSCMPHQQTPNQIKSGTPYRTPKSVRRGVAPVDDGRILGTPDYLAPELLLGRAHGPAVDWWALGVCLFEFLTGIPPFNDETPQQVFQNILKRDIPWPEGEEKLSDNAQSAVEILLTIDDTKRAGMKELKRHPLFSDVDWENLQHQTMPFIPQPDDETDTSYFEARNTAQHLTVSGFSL", "assay": "KINATIV assay", "type": "cell-based", "conditions": "1 μM, 90 minutes, BCWM.1 cells", "procedure,_shortened": "as §1", "values": [
      {"smiles": "C=CC(=O)N1CCC(CNc2nccc(Nc3ncc(C(=O)Nc4c(C)cccc4C)s3)n2)C1", "note": "(racemic) [Example I-8]", "% change of MS signal compared to control sample": "−16.9% and −9.5%"}
    ]},
    {"biological_target": "IKKa (Homo sapiens (Human), UniProt O15111)", "assay": "KINATIV assay", "type": "cell-based", "conditions": "1 μM, 90 minutes, BCWM.1 cells", "procedure,_shortened": "as §1", "units": {"% change of MS signal compared to control sample": "%"}, "values": [
      {"smiles": "C=CC(=O)N1CCC(CNc2nccc(Nc3ncc(C(=O)Nc4c(C)cccc4C)s3)n2)C1", "note": "(racemic) [Example I-8]", "% change of MS signal compared to control sample": "−4.2"}
    ]},
    {"biological_target": "MAP3K4 (Homo sapiens (Human), UniProt Q9Y6R4)", "assay": "KINATIV assay", "type": "cell-based", "conditions": "1 μM, 90 minutes, BCWM.1 cells", "procedure,_shortened": "as §1", "units": {"% change of MS signal compared to control sample": "%"}, "values": [
      {"smiles": "C=CC(=O)N1CCC(CNc2nccc(Nc3ncc(C(=O)Nc4c(C)cccc4C)s3)n2)C1", "note": "(racemic) [Example I-8]", "% change of MS signal compared to control sample": 12.8}
    ]},
    {"tested_on": "MARK1, MARK2", "assay": "KINATIV assay", "type": "cell-based", "conditions": "1 μM, 90 minutes, BCWM.1 cells", "procedure,_shortened": "as §1", "units": {"% change of MS signal compared to control sample": "%"}, "values": [
      {"smiles": "C=CC(=O)N1CCC(CNc2nccc(Nc3ncc(C(=O)Nc4c(C)cccc4C)s3)n2)C1", "note": "(racemic) [Example I-8]", "% change of MS signal compared to control sample": 14.6}
    ]},
    {"biological_target": "IRAK1 (Homo sapiens (Human), UniProt P51617)", "assay": "KINATIV assay", "type": "cell-based", "conditions": "1 μM, 90 minutes, BCWM.1 cells", "procedure,_shortened": "as §1", "units": {"% change of MS signal compared to control sample": "%"}, "values": [
      {"smiles": "C=CC(=O)N1CCC(CNc2nccc(Nc3ncc(C(=O)Nc4c(C)cccc4C)s3)n2)C1", "note": "(racemic) [Example I-8]", "% change of MS signal compared to control sample": 13.6}
    ]},
    {"biological_target": "PHKg2 (Homo sapiens (Human), UniProt P15735)", "assay": "KINATIV assay", "type": "cell-based", "conditions": "1 μM, 90 minutes, BCWM.1 cells", "procedure,_shortened": "as §1", "units": {"% change of MS signal compared to control sample": "%"}, "values": [
      {"smiles": "C=CC(=O)N1CCC(CNc2nccc(Nc3ncc(C(=O)Nc4c(C)cccc4C)s3)n2)C1", "note": "(racemic) [Example I-8]", "% change of MS signal compared to control sample": 6.4}
    ]},
    {"biological_target": "MST2 (Homo sapiens (Human), UniProt Q13188)", "assay": "KINATIV assay", "type": "cell-based", "conditions": "1 μM, 90 minutes, BCWM.1 cells", "procedure,_shortened": "as §1", "units": {"% change of MS signal compared to control sample": "%"}, "values": [
      {"smiles": "C=CC(=O)N1CCC(CNc2nccc(Nc3ncc(C(=O)Nc4c(C)cccc4C)s3)n2)C1", "note": "(racemic) [Example I-8]", "% change of MS signal compared to control sample": 4.3}
    ]},
    {"biological_target": "PIK3CG (Homo sapiens (Human), UniProt P48736)", "assay": "KINATIV assay", "type": "cell-based", "conditions": "1 μM, 90 minutes, BCWM.1 cells", "procedure,_shortened": "as §1", "units": {"% change of MS signal compared to control sample": "%"}, "values": [
      {"smiles": "C=CC(=O)N1CCC(CNc2nccc(Nc3ncc(C(=O)Nc4c(C)cccc4C)s3)n2)C1", "note": "(racemic) [Example I-8]", "% change of MS signal compared to control sample": "−55.4"}
    ]},
    {"biological_target": "TYK2 domain2 (Homo sapiens (Human), UniProt P29597)", "assay": "KINATIV assay", "type": "cell-based", "conditions": "1 μM, 90 minutes, BCWM.1 cells", "procedure,_shortened": "as §1", "units": {"% change of MS signal compared to control sample": "%"}, "values": [
      {"smiles": "C=CC(=O)N1CCC(CNc2nccc(Nc3ncc(C(=O)Nc4c(C)cccc4C)s3)n2)C1", "note": "(racemic) [Example I-8]", "% change of MS signal compared to control sample": "−44.6"}
    ]},
    {"tested_on": "MAP3K2, MAP3K3", "assay": "KINATIV assay", "type": "cell-based", "conditions": "1 μM, 90 minutes, BCWM.1 cells", "procedure,_shortened": "as §1", "units": {"% change of MS signal compared to control sample": "%"}, "values": [
      {"smiles": "C=CC(=O)N1CCC(CNc2nccc(Nc3ncc(C(=O)Nc4c(C)cccc4C)s3)n2)C1", "note": "(racemic) [Example I-8]", "% change of MS signal compared to control sample": 19.4}
    ]},
    {"biological_target": "GCN2 (Homo sapiens (Human), UniProt Q9P2K8)", "sequence (Q9P2K8 whole entry)": "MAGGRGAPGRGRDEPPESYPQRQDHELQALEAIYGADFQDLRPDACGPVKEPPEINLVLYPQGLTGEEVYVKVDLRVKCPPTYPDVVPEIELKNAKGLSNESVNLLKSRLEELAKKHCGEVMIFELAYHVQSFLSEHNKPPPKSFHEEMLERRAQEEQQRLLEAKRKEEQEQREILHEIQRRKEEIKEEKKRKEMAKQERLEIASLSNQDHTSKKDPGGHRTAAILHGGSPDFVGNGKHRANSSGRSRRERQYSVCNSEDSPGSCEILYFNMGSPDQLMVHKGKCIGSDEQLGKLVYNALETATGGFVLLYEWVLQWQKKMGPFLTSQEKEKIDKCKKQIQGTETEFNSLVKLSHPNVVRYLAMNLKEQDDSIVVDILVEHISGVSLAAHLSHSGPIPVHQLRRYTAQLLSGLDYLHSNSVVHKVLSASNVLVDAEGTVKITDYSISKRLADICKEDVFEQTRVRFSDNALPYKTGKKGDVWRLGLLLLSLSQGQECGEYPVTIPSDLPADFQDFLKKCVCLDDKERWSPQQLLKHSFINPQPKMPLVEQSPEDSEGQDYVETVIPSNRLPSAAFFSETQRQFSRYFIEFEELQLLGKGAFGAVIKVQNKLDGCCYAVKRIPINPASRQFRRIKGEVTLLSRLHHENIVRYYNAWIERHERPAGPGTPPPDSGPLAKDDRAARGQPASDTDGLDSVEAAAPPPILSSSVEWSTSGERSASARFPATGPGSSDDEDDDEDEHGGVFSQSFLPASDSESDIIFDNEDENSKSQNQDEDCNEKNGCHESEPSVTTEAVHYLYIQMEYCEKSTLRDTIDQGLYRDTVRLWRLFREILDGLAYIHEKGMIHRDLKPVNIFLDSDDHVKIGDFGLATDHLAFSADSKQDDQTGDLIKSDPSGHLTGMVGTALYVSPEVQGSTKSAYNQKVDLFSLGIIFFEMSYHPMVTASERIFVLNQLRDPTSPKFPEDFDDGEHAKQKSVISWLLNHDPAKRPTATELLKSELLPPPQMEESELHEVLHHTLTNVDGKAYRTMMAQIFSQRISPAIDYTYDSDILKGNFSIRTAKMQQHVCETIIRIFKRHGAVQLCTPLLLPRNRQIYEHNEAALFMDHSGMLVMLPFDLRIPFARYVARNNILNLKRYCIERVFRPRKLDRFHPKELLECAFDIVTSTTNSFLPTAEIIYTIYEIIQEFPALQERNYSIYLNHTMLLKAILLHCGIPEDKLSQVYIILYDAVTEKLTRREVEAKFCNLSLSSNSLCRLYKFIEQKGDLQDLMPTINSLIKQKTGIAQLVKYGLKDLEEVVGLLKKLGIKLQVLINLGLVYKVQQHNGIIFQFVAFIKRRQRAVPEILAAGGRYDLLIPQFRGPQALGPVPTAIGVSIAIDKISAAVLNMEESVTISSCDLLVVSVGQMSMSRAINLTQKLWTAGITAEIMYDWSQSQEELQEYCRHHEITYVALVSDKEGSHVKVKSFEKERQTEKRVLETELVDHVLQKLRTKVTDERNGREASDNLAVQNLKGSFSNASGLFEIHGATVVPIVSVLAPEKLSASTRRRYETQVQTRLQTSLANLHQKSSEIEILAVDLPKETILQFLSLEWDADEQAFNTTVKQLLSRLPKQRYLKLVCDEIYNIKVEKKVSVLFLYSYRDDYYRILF", "assay": "KINATIV assay", "type": "cell-based", "conditions": "1 μM, 90 minutes, BCWM.1 cells", "procedure,_shortened": "as §1", "values": [
      {"smiles": "C=CC(=O)N1CCC(CNc2nccc(Nc3ncc(C(=O)Nc4c(C)cccc4C)s3)n2)C1", "note": "(racemic) [Example I-8]", "% change of MS signal compared to control sample": "−20.3% and −13.6%"}
    ]}
  ]
}
